# Measurements reported in the NIST ThermoML archive (doi:10.1016/j.jct.2015.06.009).
# Numbers after ± are expanded uncertainties.
# Test: xn = mol fraction of the nth substance listed
# Conditions: 101 kPa, Liquid; for speed of sound: Frequency=3 MHz, Sing-around technique in a fixed-path interferometer; for mass density: Vibrating tube method
smiles,measurement,setting,value
COC(C)(C)C [2-methoxy-2-methylpropane] + CCCCO,speed of sound,"298.15 K, x1 = 0.03132",1233.9 ± 1.2 m/s
same,speed of sound,"298.15 K, x1 = 0.06569",1227 ± 1.2 m/s
same,speed of sound,"298.15 K, x1 = 0.1315",1213.6 ± 1.2 m/s
same,speed of sound,"298.15 K, x1 = 0.193",1200.7 ± 1.2 m/s
same,speed of sound,"298.15 K, x1 = 0.2647",1185.7 ± 1.2 m/s
same,speed of sound,"298.15 K, x1 = 0.3401",1170.3 ± 1.2 m/s
same,speed of sound,"298.15 K, x1 = 0.3916",1159.3 ± 1.2 m/s
same,speed of sound,"298.15 K, x1 = 0.4652",1144.3 ± 1.2 m/s
same,speed of sound,"298.15 K, x1 = 0.5451",1128.3 ± 1.1 m/s
same,speed of sound,"298.15 K, x1 = 0.6001",1117.3 ± 1.1 m/s
same,speed of sound,"298.15 K, x1 = 0.6708",1103.5 ± 1.1 m/s
same,speed of sound,"298.15 K, x1 = 0.7347",1091.3 ± 1.1 m/s
same,speed of sound,"298.15 K, x1 = 0.7953",1079.5 ± 1.1 m/s
same,speed of sound,"298.15 K, x1 = 0.8755",1063.6 ± 1.1 m/s
same,speed of sound,"298.15 K, x1 = 0.9367",1050.6 ± 1.1 m/s
same,speed of sound,"298.15 K, x1 = 1",1036.4 ± 1.1 m/s
same,mass density,"298.15 K, x1 = 0.03132",803.61 ± 0.15 kg/m3
same,mass density,"298.15 K, x1 = 0.06569",801.27 ± 0.15 kg/m3
same,mass density,"298.15 K, x1 = 0.1315",796.77 ± 0.15 kg/m3
same,mass density,"298.15 K, x1 = 0.193",792.46 ± 0.15 kg/m3
same,mass density,"298.15 K, x1 = 0.2647",787.54 ± 0.15 kg/m3
same,mass density,"298.15 K, x1 = 0.3401",782.26 ± 0.15 kg/m3
same,mass density,"298.15 K, x1 = 0.3916",778.65 ± 0.15 kg/m3
same,mass density,"298.15 K, x1 = 0.4652",773.54 ± 0.15 kg/m3
same,mass density,"298.15 K, x1 = 0.5451",768.04 ± 0.15 kg/m3
same,mass density,"298.15 K, x1 = 0.6001",764.05 ± 0.15 kg/m3
same,mass density,"298.15 K, x1 = 0.6708",759.06 ± 0.16 kg/m3
same,mass density,"298.15 K, x1 = 0.7347",754.56 ± 0.16 kg/m3
same,mass density,"298.15 K, x1 = 0.7953",750.27 ± 0.16 kg/m3
same,mass density,"298.15 K, x1 = 0.8755",744.44 ± 0.16 kg/m3
same,mass density,"298.15 K, x1 = 0.9367",739.95 ± 0.16 kg/m3
same,mass density,"298.15 K, x1 = 1",735.22 ± 0.16 kg/m3
same,speed of sound,"308.15 K, x1 = 0.03132",1200 ± 1.2 m/s
same,speed of sound,"308.15 K, x1 = 0.06569",1192.7 ± 1.2 m/s
same,speed of sound,"308.15 K, x1 = 0.1315",1178.4 ± 1.2 m/s
same,speed of sound,"308.15 K, x1 = 0.193",1164.5 ± 1.2 m/s
same,speed of sound,"308.15 K, x1 = 0.2647",1148.6 ± 1.2 m/s
same,speed of sound,"308.15 K, x1 = 0.3401",1131.9 ± 1.1 m/s
same,speed of sound,"308.15 K, x1 = 0.3916",1120.5 ± 1.1 m/s
same,speed of sound,"308.15 K, x1 = 0.4652",1104.6 ± 1.1 m/s
same,speed of sound,"308.15 K, x1 = 0.5451",1087.4 ± 1.1 m/s
same,speed of sound,"308.15 K, x1 = 0.6001",1076.1 ± 1.1 m/s
same,speed of sound,"308.15 K, x1 = 0.6708",1061.5 ± 1.1 m/s
same,speed of sound,"308.15 K, x1 = 0.7347",1048.4 ± 1.1 m/s
same,speed of sound,"308.15 K, x1 = 0.7953",1036 ± 1.1 m/s
same,speed of sound,"308.15 K, x1 = 0.8755",1019 ± 1.1 m/s
same,speed of sound,"308.15 K, x1 = 0.9367",1005.4 ± 1.1 m/s
same,speed of sound,"308.15 K, x1 = 1",990.57 ± 1.1 m/s
same,mass density,"308.15 K, x1 = 0.03132",795.86 ± 0.15 kg/m3
same,mass density,"308.15 K, x1 = 0.06569",793.42 ± 0.15 kg/m3
same,mass density,"308.15 K, x1 = 0.1315",788.76 ± 0.15 kg/m3
same,mass density,"308.15 K, x1 = 0.193",784.25 ± 0.15 kg/m3
same,mass density,"308.15 K, x1 = 0.2647",779.11 ± 0.15 kg/m3
same,mass density,"308.15 K, x1 = 0.3401",773.61 ± 0.15 kg/m3
same,mass density,"308.15 K, x1 = 0.3916",769.83 ± 0.15 kg/m3
same,mass density,"308.15 K, x1 = 0.4652",764.48 ± 0.15 kg/m3
same,mass density,"308.15 K, x1 = 0.5451",758.63 ± 0.16 kg/m3
same,mass density,"308.15 K, x1 = 0.6001",754.64 ± 0.16 kg/m3
same,mass density,"308.15 K, x1 = 0.6708",749.44 ± 0.16 kg/m3
same,mass density,"308.15 K, x1 = 0.7347",744.74 ± 0.16 kg/m3
same,mass density,"308.15 K, x1 = 0.7953",740.28 ± 0.16 kg/m3
same,mass density,"308.15 K, x1 = 0.8755",734.2 ± 0.16 kg/m3
same,mass density,"308.15 K, x1 = 0.9367",729.44 ± 0.16 kg/m3
same,mass density,"308.15 K, x1 = 1",724.64 ± 0.16 kg/m3
same,speed of sound,"318.15 K, x1 = 0.03132",1166.3 ± 1.2 m/s
same,speed of sound,"318.15 K, x1 = 0.06569",1158.4 ± 1.2 m/s
same,speed of sound,"318.15 K, x1 = 0.1315",1143 ± 1.2 m/s
same,speed of sound,"318.15 K, x1 = 0.193",1128.5 ± 1.2 m/s
same,speed of sound,"318.15 K, x1 = 0.2647",1111.7 ± 1.1 m/s
same,speed of sound,"318.15 K, x1 = 0.3401",1094 ± 1.1 m/s
same,speed of sound,"318.15 K, x1 = 0.3916",1082 ± 1.1 m/s
same,speed of sound,"318.15 K, x1 = 0.4652",1065.2 ± 1.1 m/s
same,speed of sound,"318.15 K, x1 = 0.5451",1047.2 ± 1.1 m/s
same,speed of sound,"318.15 K, x1 = 0.6001",1034.9 ± 1.1 m/s
same,speed of sound,"318.15 K, x1 = 0.6708",1019.5 ± 1.1 m/s
same,speed of sound,"318.15 K, x1 = 0.7347",1005.7 ± 1.1 m/s
same,speed of sound,"318.15 K, x1 = 0.7953",992.74 ± 1.1 m/s
same,speed of sound,"318.15 K, x1 = 0.8755",974.75 ± 1.1 m/s
same,speed of sound,"318.15 K, x1 = 0.9367",960.39 ± 1.1 m/s
same,speed of sound,"318.15 K, x1 = 1",944.94 ± 1.1 m/s
same,mass density,"318.15 K, x1 = 0.03132",788.07 ± 0.15 kg/m3
same,mass density,"318.15 K, x1 = 0.06569",785.54 ± 0.15 kg/m3
same,mass density,"318.15 K, x1 = 0.1315",780.66 ± 0.15 kg/m3
same,mass density,"318.15 K, x1 = 0.193",775.99 ± 0.15 kg/m3
same,mass density,"318.15 K, x1 = 0.2647",770.65 ± 0.15 kg/m3
same,mass density,"318.15 K, x1 = 0.3401",764.93 ± 0.15 kg/m3
same,mass density,"318.15 K, x1 = 0.3916",761.01 ± 0.16 kg/m3
same,mass density,"318.15 K, x1 = 0.4652",755.43 ± 0.16 kg/m3
same,mass density,"318.15 K, x1 = 0.5451",749.33 ± 0.16 kg/m3
same,mass density,"318.15 K, x1 = 0.6001",745.19 ± 0.16 kg/m3
same,mass density,"318.15 K, x1 = 0.6708",739.77 ± 0.16 kg/m3
same,mass density,"318.15 K, x1 = 0.7347",734.85 ± 0.16 kg/m3
same,mass density,"318.15 K, x1 = 0.7953",730.2 ± 0.16 kg/m3
same,mass density,"318.15 K, x1 = 0.8755",723.89 ± 0.16 kg/m3
same,mass density,"318.15 K, x1 = 0.9367",719.05 ± 0.17 kg/m3
same,mass density,"318.15 K, x1 = 1",714.01 ± 0.17 kg/m3
same,speed of sound,"328.15 K, x1 = 0.03132",1132.8 ± 1.2 m/s
same,speed of sound,"328.15 K, x1 = 0.06569",1124.4 ± 1.2 m/s
same,speed of sound,"328.15 K, x1 = 0.1315",1108.2 ± 1.1 m/s
same,speed of sound,"328.15 K, x1 = 0.193",1092.7 ± 1.1 m/s
same,speed of sound,"328.15 K, x1 = 0.2647",1075 ± 1.1 m/s
same,speed of sound,"328.15 K, x1 = 0.3401",1056.4 ± 1.1 m/s
same,speed of sound,"328.15 K, x1 = 0.3916",1043.8 ± 1.1 m/s
same,speed of sound,"328.15 K, x1 = 0.4652",1026.3 ± 1.1 m/s
same,speed of sound,"328.15 K, x1 = 0.5451",1007 ± 1.1 m/s
same,speed of sound,"328.15 K, x1 = 0.6001",995.48 ± 1.1 m/s
same,speed of sound,"328.15 K, x1 = 0.6708",978.48 ± 1.1 m/s
same,speed of sound,"328.15 K, x1 = 0.7347",963.43 ± 1.1 m/s
same,speed of sound,"328.15 K, x1 = 0.8755",932.29 ± 1.1 m/s
same,speed of sound,"328.15 K, x1 = 0.9367",917.28 ± 1.1 m/s
same,mass density,"328.15 K, x1 = 0.03132",780.19 ± 0.15 kg/m3
same,mass density,"328.15 K, x1 = 0.06569",777.56 ± 0.15 kg/m3
same,mass density,"328.15 K, x1 = 0.1315",772.49 ± 0.15 kg/m3
same,mass density,"328.15 K, x1 = 0.193",767.64 ± 0.15 kg/m3
same,mass density,"328.15 K, x1 = 0.2647",762.09 ± 0.16 kg/m3
same,mass density,"328.15 K, x1 = 0.3401",756.13 ± 0.16 kg/m3
same,mass density,"328.15 K, x1 = 0.3916",752.07 ± 0.16 kg/m3
same,mass density,"328.15 K, x1 = 0.4652",746.28 ± 0.16 kg/m3
same,mass density,"328.15 K, x1 = 0.5451",739.91 ± 0.16 kg/m3
same,mass density,"328.15 K, x1 = 0.6001",735.66 ± 0.16 kg/m3
same,mass density,"328.15 K, x1 = 0.6708",729.95 ± 0.16 kg/m3
same,mass density,"328.15 K, x1 = 0.7347",724.9 ± 0.16 kg/m3
same,mass density,"328.15 K, x1 = 0.8755",713.5 ± 0.17 kg/m3
same,mass density,"328.15 K, x1 = 0.9367",708.44 ± 0.17 kg/m3
same,mass density,"328.15 K, x1 = 1",703.38 ± 0.17 kg/m3
